Data set [1] has as its target T1, HNE (human neutrophil elastase) (Homo sapiens, UniProt P08246).
T1 construct: purchased Calbiochem, La Jolla, CA
T1 sequence (P08246 30-267): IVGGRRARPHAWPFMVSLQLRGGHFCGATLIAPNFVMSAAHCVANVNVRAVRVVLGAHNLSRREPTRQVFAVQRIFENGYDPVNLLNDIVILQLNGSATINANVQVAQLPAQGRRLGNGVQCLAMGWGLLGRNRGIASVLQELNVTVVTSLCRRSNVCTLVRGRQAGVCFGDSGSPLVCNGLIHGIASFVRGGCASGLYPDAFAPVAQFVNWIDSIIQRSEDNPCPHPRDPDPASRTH
Nature of the data set: HNE inhibition assay (fluorogenic substrate). It is filed as biochemical. Particulars: for IC50: Table 1, mean ± SD of three independent experiments, NA = no inhibitory activity at the highest concentration tested (50 μM).
Protocol: HNE inhibition assay. Compounds were dissolved in 100% DMSO at 5 mM stock concentrations. The final concentration of DMSO in the reactions was 1%, and this level of DMSO had no effect on enzyme activity. The HNE inhibition assay was performed in black flat-bottom 96-well microtiter plates. Briefly, a buffer solution containing 200 mM Tris–HCl, pH 7.5, 0.01% bovine serum albumin, 0.05% Tween-20, and 20 mU/ml of HNE (Calbiochem, La Jolla, CA) was added to wells containing different concentrations of each compound. The reaction was initiated by addition of 25 μM elastase substrate (N-methylsuccinyl-Ala-Ala-Pro-Val-7-amino-4-methylcoumarin, Calbiochem) in a final reaction volume of 100 μL/well. Kinetic measurements were obtained every 30 s for 10 min at 25 °C using a Fluoroskan Ascent FL fluorescence microplate reader (Thermo Electron, Waltham, MA) with excitation and emission wavelengths at 355 and 460 nm, respectively. For all compounds tested, the concentration of inhibitor that caused 50% inhibition of the enzymatic reaction (IC50) was calculated by plotting % inhibition versus logarithm of inhibitor concentration (at least six points). The data are presented as the mean values of at least three independent experiments with relative standard deviations of <15%.

A short description of data set [2]: Spontaneous hydrolysis (chemical stability) in aqueous buffer. The format is physicochemical. Particulars: 25 °C, 0.05 M phosphate buffer, pH 7.3; read-out: t1/2 (h) Spontaneous hydrolysis (converted). The method, then:
(§1) Spontaneous hydrolysis of selected derivatives was evaluated at 25 °C in 0.05 M phosphate buffer, pH 7.3. Kinetics of hydrolysis were monitored by measuring changes in absorbance spectra over time using a SpectraMax Plus microplate spectrophotometer (Molecular Devices, Sunnyvale, CA). Absorbance (At) at the characteristic absorption maxima of each compound was measured at the indicated times until no further absorbance decreases occurred (A∞)[30]. Using these measurements, we created semilogarithmic plots of log(At – A∞) versus time, and k′ values were determined from the slopes of these plots. Half-conversion times were calculated using t1/2=0.693/k′, as described previously.

Data set [3] deals with T2, HNE (Homo sapiens, UniProt P08246).
T2 construct: purchased Calbiochem, La Jolla, CA
T2 sequence (P08246 30-267): T1 sequence (P08246 30-267)
Nature of the data set: Reversibility of the HNE-inhibitor complex over time (kinetic curves). The format is biochemical. The settings on record: compound at 5 μM. The method, then: (§2) However, inhibition by compound 2s was reversed after 10 min. […] To better understand the mechanism of action of this isoxazolone HNE inhibitor, we performed additional kinetic experiments.
Figure 6. Evaluation of HNE inhibition by selected isoxazolone derivatives. HNE was incubated with the indicated compounds at 5 μM concentrations, and kinetic curves monitoring substrate cleavage catalysed by HNE are shown. Representative curves are from three independent experiments.

Data set [4] concerns the target T2, HNE. Description: Compound hydrolysis in the presence of HNE. It is filed as biochemical. The settings on record: for half-life: human, phosphate buffer supplemented with HNE (400 mU/ml), pH 7.3, 400 mU/ml HNE, read-out: t1/2 (h) In the presence HNE (converted). The method, then:
as §1
In the presence of 400 mU/ml HNE, the hydrolysis was 2.2–4.8-fold higher than for spontaneous hydrolysis (i.e. without HNE) (Table 3).
Figure 5. Analysis of compound 2i spontaneous hydrolysis. Compound 2i (80 μM) was incubated in 0.05 M phosphate buffer ([…], 25 °C) supplemented with […] HNE, as indicated. Spontaneous hydrolysis was monitored by measuring changes in absorbance at 275 nm (absorption maximum of compound 2i) over time. The data are presented as the mean ± SD of triplicate samples from one experiment, which is representative of two independent experiments.

For data set [5], the target named is T2, HNE. Nature of the data set: Lineweaver-Burk analysis of HNE inhibition. The settings on record: double-reciprocal Lineweaver-Burk plot. The format is biochemical. The method, then: as §2
Figure 7. Kinetics of HNE inhibition by compound 2o. Representative double-reciprocal Lineweaver–Burk plot from three independent experiments.

Take `Cc1c(C)n(C(=O)C2CC2)oc1=O` [Compound 2a, 2-(Cyclopropanecarbonyl)-3,4-dimethylisoxazol-5(2H)-one]: the 50% inhibitory concentration (IC50) in data set [1] is 120 ± 23 nM.
In the case of `Cc1cccc(C(=O)n2oc(=O)c(C)c2C)c1` [Compound 2b, 3,4-Dimethyl-2-(3-methylbenzoyl)isoxazol-5(2H)-one], in data set [1], inhibition was half-maximal at 10900 ± 1200 nM (IC50).
In turn, `CCc1c(C)n(C(=O)C2CC2)oc1=O` [Compound 2c, 2-(Cyclopropanecarbonyl)-4-ethyl-3-methylisoxazol-5(2H)-one] registered an IC50 in data set [1] of 130 ± 25 nM.
As for `CCc1c(C)n(C(=O)c2cccc(C)c2)oc1=O` [Compound 2d, 4-Ethyl-3-methyl-2-(3-methylbenzoyl)isoxazol-5(2H)-one], the half-life was 7.7 h in data set [2] and 3.5 h at HNE [4]. In addition, in data set [1], half-maximal inhibition (IC50) was put at 94 ± 23 nM. In addition, at HNE [3], the “time during which HNE inhibition was maximal” value was 30 min.
Consider `CCc1c(C)c(=O)on1C(=O)C1CC1` [Compound 2e, 2-(Cyclopropanecarbonyl)-3-ethyl-4-methylisoxazol-5(2H)-one], for which the IC50 in data set [1] was 2200 ± 280 nM.
In the case of `CCc1c(C)c(=O)on1C(=O)c1cccc(C)c1` [Compound 2f, 3-Ethyl-4-methyl-2-(3-methylbenzoyl)isoxazol-5(2H)-one], the IC50 in data set [1] turned out to be 1800 ± 320 nM.
For `CCOC(=O)c1c(C)c(=O)on1C(=O)C1CC1` [Compound 2g, Ethyl 2-(cyclopropanecarbonyl)-4-methyl-5-oxo-2,5-dihydroisoxazole-3-carboxylate], the IC50 in data set [1] worked out at 440 ± 140 nM.
In turn, `CCOC(=O)c1c(C)c(=O)on1C(=O)c1cccc(C)c1` [Compound 2h, Ethyl 4-methyl-2-(3-methylbenzoyl)-5-oxo-2,5-dihydroisoxazole-3-carboxylate] displayed a half-maximal inhibitory concentration (IC50) in data set [1] of 39700 ± 5100 nM.
For `CCc1cc(=O)on1C(=O)C1CC1` [Compound 2i, 2-(Cyclopropanecarbonyl)-3-ethylisoxazol-5(2H)-one], the half-life in data set [2] is 19.3 h; at HNE [4], 4 h. The same compound yielded an IC50 in data set [1] of 96 ± 22 nM. Moreover, at HNE [3], the “time during which HNE inhibition was maximal” value came to 30 min. Besides, on HNE [4] (80 μM compound, 0.05 M phosphate buffer pH 7.5, 25 °C, 0, 50, 200, 400 μg/ml HNE, absorbance at 275 nm), the “hydrolysis with increasing HNE concentration (in words)” value was “dose-dependent hydrolysis”.
Compound `CCc1cc(=O)on1C(=O)c1cccc(C)c1` [Compound 2j, 3-Ethyl-2-(3-methylbenzoyl)isoxazol-5(2H)-one] showed a melting point of 81 to 84 °C. Moreover, in data set [2], the half-life is 5.3 h. For the same compound, in data set [1] (2i vs 2e, 2j vs 2f), the “fold higher inhibitory activity with respect to the corresponding 4-methyl derivative” value is 42 fold. The same compound displayed a half-maximal inhibitory concentration (IC50) in data set [1] of 43 ± 11 nM. Moreover, the “time during which HNE inhibition was maximal” value on HNE [3] is reported as 30 min. Also, the half-life on HNE [4] was 2.1 h.
Compound `CCC(=O)n1oc(=O)cc1C(C)C` [Compound 2k, 3-Isopropyl-2-propionylisoxazol-5(2H)-one] had a melting point of 92 to 95 °C. Besides, the IC50 in data set [1] was 1100 ± 140 nM.
Consider `CC(C)c1cc(=O)on1C(=O)C1CC1` [Compound 2l, 2-(Cyclopropanecarbonyl)-3-isopropylisoxazol-5(2H)-one], for which the half-life in data set [2] was 19.3 h; at HNE [4] it was 4.3 h. Moreover, in data set [1], the IC50 is 34 ± 9 nM. Besides, the “time during which HNE inhibition was maximal” value at HNE [3] came to 30 min.
`CC(C)c1cc(=O)on1C(=O)C1CCCC1` [Compound 2m, 2-(Cyclopentanecarbonyl)-3-isopropylisoxazol-5(2H)-one]: the half-inhibitory concentration (IC50) in data set [1] was 560 ± 150 nM.
Consider `Cc1cccc(C(=O)n2oc(=O)cc2C(C)C)c1` [Compound 2n, 3-Isopropyl-2-(3-methylbenzoyl)isoxazol-5(2H)-one], for which the half-life in data set [2] was 6.2 h; on HNE [4] it was 2.6 h. Moreover, 42 ± 11 nM corresponded to half-maximal inhibition in data set [1] (IC50). Also, on HNE [3], the “time during which HNE inhibition was maximal” value was 30 min.
Turning to `Cc1ccc(C(=O)n2oc(=O)cc2C(C)C)cc1` [Compound 2o, 3-Isopropyl-2-(4-methylbenzoyl)isoxazol-5(2H)-one], the melting point is 77 to 79 °C. The half-life in data set [2] was 8.9 h. This compound also had a 50% inhibitory concentration (IC50) in data set [1] of 20 ± 7 nM. For the same compound, the “time after which HNE inhibition was reversed” value on HNE [3] worked out at 2 h. Also, the “mechanism of HNE inhibition (in words)” value on HNE [5] is recorded as “competitive HNE inhibitor”. On HNE [4], the half-life is 3.4 h.
As for `CC(C)c1cc(=O)on1C(=O)c1cccc(C#N)c1` [Compound 2p, 3-(3-Isopropyl-5-oxo-2,5-dihydroisoxazole-2-carbonyl)benzonitrile], the IC50 in data set [1] is 6500 ± 1700 nM.
In the case of `CC(C)c1cc(=O)on1C(=O)c1ccc(C#N)cc1` [Compound 2q, 4-(3-Isopropyl-5-oxo-2,5-dihydroisoxazole-2-carbonyl)benzonitrile], the melting point was in the range of 113 to 115 °C. Further, the half-inhibitory concentration (IC50) in data set [1] was determined as 18200 ± 2500 nM.
Take `CC(C)c1cc(=O)on1C(=O)c1cccc(C(F)(F)F)c1` [Compound 2r, 3-Isopropyl-2-(3-(trifluoromethyl)benzoyl)isoxazol-5(2H)-one]: in data set [1], the IC50 was found to be 1200 ± 220 nM.
Take `CC(C)c1cc(=O)on1C(=O)c1ccc(C(F)(F)F)cc1` [Compound 2s, 3-Isopropyl-2-(4-(trifluoromethyl)benzoyl)isoxazol-5(2H)-one]: the half-life was 3.1 h in data set [2] and 0.9 h at HNE [4]. This compound also gave a half-maximal inhibitory concentration (IC50) in data set [1] of 34 ± 12 nM. Also, on HNE [3], the “time after which HNE inhibition was reversed” value was 0.167 h.
In data set [1], `CC(C)c1cc(=S)on1C(=O)C1CC1` [Compound 3a, Cyclopropyl-(3-isopropyl-5-thioxoisoxazol-2(5H)-yl)methanone] registered a half-maximal inhibitory concentration (IC50) of 2100 ± 310 nM.
In the case of `Cc1cccc(C(=O)n2oc(=S)cc2C(C)C)c1` [Compound 3b, (3-Isopropyl-5-thioxoisoxazol-2(5H)-yl)-(m-tolyl)methanone], in data set [1], the “HNE inhibitory activity (in words)” value is reported as “inactivity”.
In turn, `Cc1cccc(Cn2oc(=O)c(C)c2C)c1` [Compound 4a, 3,4-Dimethyl-2-(3-methylbenzyl)isoxazol-5(2H)-one] showed a melting point of 80 to 83 °C.

The IC50 is the midpoint of a concentration-inhibition curve. A high value points to weaker potency. The term melting point denotes the temperature, or range, at which the solid turns liquid.

Values taken from article PMC5927774, “Isoxazol-5(2H)-one: a new scaffold for potent human neutrophil elastase (HNE) inhibitors” (Journal of Enzyme Inhibition and Medicinal Chemistry, 2017).
